Reference: the Kinase Knowledgebase extract (Sharma et al. 2016)

Molecular target: MAPK14 (UniProt Q16539)
Test: p38 Inhibition Assay (in Vitro)

Sequence of MAPK14 (Q16539 whole entry, looked up): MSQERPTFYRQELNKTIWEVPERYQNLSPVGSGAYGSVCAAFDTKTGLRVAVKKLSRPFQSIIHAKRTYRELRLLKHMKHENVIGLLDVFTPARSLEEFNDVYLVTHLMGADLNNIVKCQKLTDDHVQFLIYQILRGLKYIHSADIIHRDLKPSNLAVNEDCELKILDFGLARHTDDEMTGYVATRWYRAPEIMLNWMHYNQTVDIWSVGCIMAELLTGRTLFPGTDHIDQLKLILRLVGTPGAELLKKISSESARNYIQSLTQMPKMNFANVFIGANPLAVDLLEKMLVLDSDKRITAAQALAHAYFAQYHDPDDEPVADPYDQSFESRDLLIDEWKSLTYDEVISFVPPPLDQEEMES

IC50, > 30 µM:
O=C(NCc1ccc(S(=O)(=O)N2CCC(Nc3cccc(S(=O)(=O)CCO)c3)CC2)s1)c1ccc(Cl)cc1
COc1cccc(C(=O)NCc2ccc(S(=O)(=O)N3CCC(Nc4ccccc4[N+](=O)[O-])CC3)s2)c1
O=C(NCc1ccc(S(=O)(=O)N2CCC(Nc3ccccc3)CC2)s1)c1ccc(Cl)cc1
CCCc1cccc(NC2CCN(S(=O)(=O)c3ccc(CNC(=O)c4ccc(Cl)cc4)s3)CC2)c1
O=C(NCc1ccc(S(=O)(=O)N2CCC(n3nnc4ccccc43)CC2)s1)c1ccccc1O
NS(=O)(=O)c1cccc(NC2CCN(S(=O)(=O)c3ccc(CNC(=O)c4ccc(Cl)cc4)s3)CC2)c1
O=C(NCc1ccc(S(=O)(=O)N2CCC(n3nnc4ccccc43)CC2)s1)c1ccc(Cl)cc1
O=C(NCc1ccc(S(=O)(=O)N2CCC(n3cnc4ccccc43)CC2)s1)c1ccc(Cl)cc1
COc1cccc(NC2CCN(S(=O)(=O)c3ccc(CNC(=O)c4ccc([N+](=O)[O-])cc4)s3)CC2)c1
O=C(NCc1ccc(S(=O)(=O)N2CCN(C(=O)c3cccc4ccccc34)CC2)s1)c1ccc(Cl)cc1
O=C(NCc1ccc(S(=O)(=O)N2CCCN(C(=O)Cc3ccccc3)CC2)s1)c1ccc(Cl)cc1
O=C(NCc1ccc(S(=O)(=O)N2CCC(Nc3ccc(Cl)cc3)CC2)s1)c1ccc(Cl)cc1
O=C(NCc1ccc(S(=O)(=O)N2CCC(C(=O)c3ccc(F)cc3F)CC2)s1)c1ccc(Cl)cc1
COC(=O)c1cccc(NC2CCN(S(=O)(=O)c3ccc(CNC(=O)c4ccc([N+](=O)[O-])cc4)s3)CC2)c1
